Values quoted from earlier work in patent publication US20240237652A1, “Biocidal Composition and Method” (ARXADA, LLC, priority 2021, published 2024).

Columns and labels:
[1] = neutral pH
[2] = tested on: bacteria, fungi, and yeast

| Compound | solubility in water [1] [ppm] | amount required for a reliable and quick biocidal activity [2] [ppm] |
| --- | --- | --- |
| Zinc pyrithione [ZPT] | 8 | – |
| O=c1[nH]sc2ccccc12 [BIT, 1,2-benzisothiazolin-3-one] | – | ≤ 500 |
